Measurements taken from article PMC3369139, “Preclinical evaluation of two ^68Ga-siderophores as potential radiopharmaceuticals for Aspergillus fumigatus infection imaging” (European Journal of Nuclear Medicine and Molecular Imaging, 2012).
Where “and” joins values, the source holds several entries; their conditions need not be identical. Equal entries are not always repeated.

Columns and labels:
[1] = Biodistribution in normal Balb/c mice; format: in vivo; settings: normal noninfected Balb/c mice, i.v. tail vein
Method: Normal noninfected Balb/c mice (female, 6 weeks old) were injected with ^68Ga-siderophore (2 MBq and 0.1–0.2 μg of siderophore per mouse) into the tail vein. Animals were killed by cervical dislocation 30 min and 90 min after injection. The organs and tissues (blood, spleen, pancreas, stomach, intestines, kidneys, liver, heart, lungs, muscle and femur) were removed and radioactivity was counted in a γ-counter. The results are expressed as percentage of injected dose per gram of tissue.

A. fumigatus [2] = test: PET imaging in rat A. fumigatus infection model; format: in vivo, Lewis rats; settings: infected rats, lungs, calculated from all PET imaging studies, mean ± sd, n=13
Method: (§1) Female or male Lewis rats (2–3 months old), weighing 200–250 g, were treated as described previously. Briefly, the rats received repeated intraperitoneal injections of cyclophosphamide to induce neutropenia before A. fumigatus administration. To prevent bacterial superinfection, the animals were given antibiotics throughout the experiment. Fungal infection was established by intratracheal administration of 100–300 μl of A. fumigatus inoculum in various concentrations (1 × 10^5 to 1 × 10^9 conidia per millilitre). Animals were injected intravenously 1–3 days (depending on the severity of infection) after A. fumigatus administration with ^68Ga-labelled siderophore (10–20 MBq and 1–2 μg of siderophore per rat). The rats were imaged or killed by overdosing with thiopental (Sandoz, Kundl, Austria) 2 h after injection. Various organs and tissues (blood, spleen, kidneys, liver and lungs) were removed and radioactivity was measured in a γ-counter. The excised organs were investigated for the presence of fungi, as described below.
PET images were acquired with an Inveon animal PET/CT scanner (Siemens Preclinical Solutions, Knoxville, TN) with an intrinsic spatial resolution of 1.5 mm. The animals were placed in a prone position. Static PET images were acquired over 30 min starting 30 min after intravenous injection of ^68Ga-siderophore. Dynamic PET imaging was started upon injection and continued up to 60 min after injection. In addition, combined PET/CT scans were performed for anatomical reference. PET emission scans were acquired for 30 min, preceded by CT scans (spatial resolution 113 μm, 80 kV, 500 μA, exposure time 300 ms). After imaging, animals were killed by CO2/O2. Scans were reconstructed using Inveon Acquisition Workplace software (version 1.5; Siemens Preclinical Solutions, Knoxville, TN) using a 3-D ordered subset expectation maximization/maximum a posteriori (OSEM3D/MAP) algorithm with the following parameters: matrix 256 × 256 × 159, pixel size 0.43 × 0.43 × 0.8 mm^3 and a MAP prior β-value of 1.5.

Stability in human serum = format: in vitro ADME
Method: (§2) TAFC and FOXE were labelled with ^68Ga using acetate buffer at room temperature for 15 min (TAFC) and at 80 °C for 20 min (FOXE). For all in vitro and in vivo studies, the pH of the final product was adjusted with 1.1 M sodium acetate to pH 6–7. The radiochemical purity, log P, protein binding and stability of ^68Ga-siderophores in various media were determined, as described previously.

[3] = Protein binding in human serum; format: in vitro ADME
Method: as §2

Stability in 0.1 M FeCl3 = format: physicochemical
Method: as §2

[4] = Metabolic stability in normal Balb/c mice (RP-HPLC of urine, blood, liver and kidney homogenates); format: in vivo; settings: 30 min p.i., % intact on RP-HPLC
Method: Urine, blood, liver and kidneys of normal Balb/c mice injected with ^68Ga-siderophores and treated as described previously were collected 30 min after injection. The urine sample was directly injected onto the RP-HPLC column. Blood samples were precipitated with acetonitrile and centrifuged for 2 min, and the supernatant was injected onto the RP-HPLC column. Liver and kidneys were washed in the ice-cold TRIS buffer and liquidized using a mixer in a falcon tube containing 1 ml of TRIS buffer. The liver and kidney homogenates obtained were mixed with acetonitrile and centrifuged for 2 min, and the supernatant was injected onto the RP-HPLC column. In all cases 1 min fractions of the column eluate were collected and measured in a γ-counter. Samples were not collected at 90 min after injection because the measured activity was already low in the samples obtained 30 min after injection. All metabolic studies were performed using a previously described HPLC method.

A. fumigatus [5] = test: Ex vivo biodistribution in rat A. fumigatus infection model, iron preload; set-up: species or system Lewis rats
Method: (§3) The A. fumigatus (A29) isolate was grown on Sabouraud dextrose agar (BD) for 5 days at 37 °C, and the conidia were harvested in 2 ml of sterile NaCl by gently rubbing with a pipette tip. The conidia suspension was transferred into a sterile 50 ml plastic tube. After homogenization (vortex) and filtration (40 μm nylon cell strainer; BD), the suspension was counted in a Neubauer chamber and adjusted to the volitional concentration in the range 1 × 10^5 to 1 × 10^9 conidia per millilitre.
as §1
Rats were treated as in the ‘standard’ infection model above, except that iron solution (FerMed; Medice, Iserlohn, Germany) 10 mg/kg was injected intraperitoneally three times (1 week, 4 days and 1 day) before A. fumigatus administration.
(§4) The excised organs were homogenized in a petri dish using a sterile surgical blade and transferred to Sabouraud dextrose agar (BD) plates. The plates were incubated at 37 °C and examined daily for 7 days. […] Severe infection was defined as the presence of severe fungal growth 1 day after incubation, mild infection was defined as the presence of minor growth up to 3 days after incubation, and no infection was defined as lack of growth within 1 week of incubation.

Stability in 6 mM DTPA = format: physicochemical
Method: as §2

[6] = Log P of ^68Ga-siderophores; format: physicochemical; settings: determined as described previously [20]
Method: as §2

[7] = test system: A. fumigatus wild-type ATCC46645; test: In vitro uptake of ^68Ga-siderophores by A. fumigatus cultures; format: cell-based, Aspergillus fumigatus; settings: room temperature
Method: The Aspergillus strain used for in vitro studies was A. fumigatus wild-type ATCC46645 (American Type Culture Collection) cultured at 37 °C in Aspergillus minimal medium, containing 1 % glucose as the carbon source, 20 mM glutamine as the nitrogen source, salts and trace elements, as described previously. Iron-sufficient media contained […] FeSO4. For preparation of iron-deficient media, iron addition was omitted. Iron-deficient conditions were verified by detection of extracellular siderophore production, which is suppressed by iron.
Uptake by A. fumigatus in iron-deficient and iron-sufficient cultures was studied. For the monitoring of uptake over time, ^68Ga-siderophores (5 ng) were incubated in microbial media for 10, 20, 30, 45, 60 and 90 min at room temperature in 96-well plates (Millipore, Billerica, MA). For the monitoring of uptake blocking, excess of ferri-siderophore (Fe-TAFC or Fe-FOXE) and/or sodium azide was used. ^68Ga-siderophores were incubated in iron-deficient and iron-sufficient media for 45 min at room temperature in 96-well plates. The incubation was interrupted in both cases by filtration of the medium and rapid rinsing with ice-cold TRIS buffer. The filters were collected and counted in a γ-counter.

A. fumigatus [8] = test: Ex vivo biodistribution in rat A. fumigatus infection model, standard; set-up: species or system Lewis rats
Method: as §3, §1, §4

[9] = iron preload model, 2 h after injection

Work on `CC(=O)NC1CCCN([O-])C(=O)C=C(C)CCOC(=O)C(NC(C)=O)CCCN([O-])C(=O)C=C(C)CCOC(=O)C(NC(C)=O)CCCN([O-])C(=O)C=C(C)CCOC1=O.[68Ga+3]` (stereo not shown) [^68Ga-TAFC, triacetylfusarinine C] yielded a Blood level ([1]; 30 min after injection) of 1.6 ± 0.37 %ID/g, an Intestinal accumulation ([1]; 30 min after injection) of 1.7 ± 1.04 %ID/g and an Intestinal accumulation ([1]; 90 min after injection) of 1.0 ± 0.26 %ID/g. For the same molecule, the Target/non-target ratio (A. fumigatus [2]) was 5.81 ± 6.05 (n=13), the “Stability in human serum (%)” value (Stability in human serum; incubation time 30 min) was 99.9% and the “Stability in human serum (%)” value (Stability in human serum; incubation time 60 min) was 99.9%. For the same molecule, the “Stability in human serum (%)” value (Stability in human serum; incubation time 120 min) was 99.9%, the “Protein binding (%)” value ([3]; incubation time 30 min) was 0.47% and the “Protein binding (%)” value ([3]; incubation time 60 min) was 0.76%. The “Protein binding (%)” value ([3]; incubation time 120 min) was 1.21%, the “Stability in 0.1-M FeCl3 (%)” value (Stability in 0.1 M FeCl3; incubation time 30 min) was 99.4% and the “Stability in 0.1-M FeCl3 (%)” value (Stability in 0.1 M FeCl3; incubation time 60 min) was 98.5%. The “Stability in 0.1-M FeCl3 (%)” value (Stability in 0.1 M FeCl3; incubation time 120 min) was 99.3%, the “Stability in kidney homogenate (%)” value [4] was 96.7% and the “Stability in liver homogenate (%)” value [4] was 98.1%. The “Stability in urine (%)” value ([4]; γ-counter) was 97.6%, the “Stability in blood (%)” value ([4]; acetonitrile precipitation) was 98.7% and the “Severe infection (%ID/g - lungs)” value (A. fumigatus [5]; iron preload model (10 mg/kg i.p. three times), severely infected rats, lungs 2 h after injection, n in cell) was 0.64 (n=1) %ID/g. For the same molecule, the “Lung/blood ratio, control” value (A. fumigatus [5]; [9]) was 0.99 (n=1), the “Lung/blood ratio, mild infection” value (A. fumigatus [5]; [9]) was 5.35 (n=2) and the “Lung/blood ratio, severe infection” value (A. fumigatus [5]; [9]) was 1.41 (n=1). For the same molecule, the “Lung/kidneys ratio, control” value (A. fumigatus [5]; [9]) was 0.08 (n=1), the “Lung/kidneys ratio, mild infection” value (A. fumigatus [5]; [9]) was 0.31 (n=2) and the “Lung/kidneys ratio, severe infection” value (A. fumigatus [5]; [9]) was 0.07 (n=1). For the same molecule, the “Lung/liver ratio, control” value (A. fumigatus [5]; [9]) was 0.76 (n=1), the “Lung/liver ratio, mild infection” value (A. fumigatus [5]; [9]) was 4.53 (n=2) and the “Lung/liver ratio, severe infection” value (A. fumigatus [5]; [9]) was 3.49 (n=1). The “Mild infection (%ID/g - lungs)” value (A. fumigatus [5]; iron preload model, mildly infected rats, lungs 2 h after injection, n in cell) was 0.27 (n=2) %ID/g, the “Control (%ID/g - lungs)” value (A. fumigatus [5]; iron preload model, rats showing no infection, lungs 2 h after injection, n in cell) was 0.04 (n=1) %ID/g and the “Stability in 6-mM DTPA (%)” value (Stability in 6 mM DTPA; incubation time 30 min) was 85.0%. The “Stability in 6-mM DTPA (%)” value (Stability in 6 mM DTPA; incubation time 60 min) was 84.7%, the “Log P” value [6] was −2.59 and the “Uptake by A. fumigatus in iron-deficient cultures” value ([7]; 5 ng ^68Ga-siderophore, 10-90 min, 96-well plates, filtration, γ-counter) was “rapid uptake”. For the same molecule, the “Blocking of uptake with excess of ferri-siderophore and/or sodium azide” value ([7]; iron-deficient cultures, 45 min incubation) was “could be blocked”, the “Lung/blood ratio, control (mean ± sd)” value (A. fumigatus [8]; 2 h after injection) was 1.34 ± 0.22 (n=9) and the “Lung/blood ratio, mild infection (mean ± sd)” value (A. fumigatus [8]; 2 h after injection) was 3.82 ± 2.89 (n=3). For the same molecule, the “Lung/blood ratio, severe infection (mean ± sd)” value (A. fumigatus [8]; 2 h after injection) was 15.11 ± 11.37 (n=4), the “Lung/kidneys ratio, control (mean ± sd)” value (A. fumigatus [8]; 2 h after injection) was 0.07 ± 0.03 (n=9) and the “Lung/kidneys ratio, mild infection (mean ± sd)” value (A. fumigatus [8]; 2 h after injection) was 0.16 ± 0.14 (n=3). For the same molecule, the “Lung/kidneys ratio, severe infection (mean ± sd)” value (A. fumigatus [8]; 2 h after injection) was 1.40 ± 0.76 (n=4), the “Lung/liver ratio, control (mean ± sd)” value (A. fumigatus [8]; 2 h after injection) was 0.84 ± 0.48 (n=9) and the “Lung/liver ratio, mild infection (mean ± sd)” value (A. fumigatus [8]; 2 h after injection) was 4.81 ± 2.70 (n=3). The “Lung/liver ratio, severe infection (mean ± sd)” value (A. fumigatus [8]; 2 h after injection) was 14.29 ± 6.10 (n=4), the “Mild infection (%ID/g - lungs) (mean ± sd)” value (A. fumigatus [8]; mildly infected rats, lungs ex vivo 2 h after injection, n in cell) was 0.29 ± 0.12 %ID/g and 0.29 ± 0.12 (n=3) %ID/g and the “Control (%ID/g - lungs) (mean ± sd)” value (A. fumigatus [8]; rats showing no infection, lungs ex vivo 2 h after injection, n in cell) was 0.04 ± 0.01 %ID/g and 0.04 ± 0.01 (n=9) %ID/g. For the same molecule, the “Severe infection (%ID/g - lungs) (mean ± sd)” value (A. fumigatus [8]; severely infected rats, lungs ex vivo 2 h after injection, γ-counter, n in cell) was 0.95 ± 0.37 %ID/g and 0.95 ± 0.37 (n=4) %ID/g.
